Test results as given in PMC11596557, “Exiguolysin, a Novel Thermolysin (M4) Peptidase from Exiguobacterium oxidotolerans” (Microorganisms, 2024).

Key:
[1] = target: thermolysin-like protease of E. oxidotolerans (exiguolysin) (Exiguobacterium oxidotolerans, UniProt A0A653I866); assay: Inhibitor screening and Ki determination, fluorogenic MMP substrate assay; format: biochemical; conditions: fluorogenic substrate hydrolysis, 37 °C; Morrison equation for tight-binding inhibitors; Km 14.20 µM; read-out: True Ki
Method: The inhibition of protease activity was screened using a 20 × 20 library of N-alpha dipeptide mercaptoamide inhibitors as previously described by Cathcart et al., and the half-maximal inhibitory constant (Ki) values were determined. In order to determine Michaelis–Menten constant, Km, of the fluorogenic substrate, exiguolysin (previously purified by HIC, final concentration 5 units/well) was added to wells of a 96-well black microtitre plate (Nunc); the volume was adjusted to 75 µL in assay buffer (25 mM Tris, 2.5 mM CaCl2, pH 7.0), and fluorogenic substrate (25 µL) was added at concentrations of 0, 1, 10, 25, 50, 100 and 200 µM. Time-dependent hydrolysis of the fluorogenic substrate was measured (excitation/emission […] nm) every 30 s for 30 min. The Km is determined using the Michealis–Menten equation, by plotting the rate of substrate hydrolysis against substrate concentration.
Initially, each inhibitor was tested at a final concentration of 100 µM in a broad-spectrum screen, employing a standard fluorogenic substrate assay using Mca-Lys-Pro-Leu-Gly-Leu-Dap-(Dnp)-Ala-Arg-NH2. Enzyme reactions were carried out in a 96-well black plate at 37 °C, and fluorescence was monitored as described above.

[2] = target: T1, PAR-1 (Homo sapiens, UniProt P25116); assay: Calcium mobilization assay in PC-3 cells (Fluo-4 AM); format: cell-based; conditions: protease pre-incubated with inhibitor, thrombin-induced activation
T1 construct: calcium mobilization in PC-3 cells (expressing PAR1); endogenous in cells; host or cells: PC-3
T1 sequence (P25116 22-425): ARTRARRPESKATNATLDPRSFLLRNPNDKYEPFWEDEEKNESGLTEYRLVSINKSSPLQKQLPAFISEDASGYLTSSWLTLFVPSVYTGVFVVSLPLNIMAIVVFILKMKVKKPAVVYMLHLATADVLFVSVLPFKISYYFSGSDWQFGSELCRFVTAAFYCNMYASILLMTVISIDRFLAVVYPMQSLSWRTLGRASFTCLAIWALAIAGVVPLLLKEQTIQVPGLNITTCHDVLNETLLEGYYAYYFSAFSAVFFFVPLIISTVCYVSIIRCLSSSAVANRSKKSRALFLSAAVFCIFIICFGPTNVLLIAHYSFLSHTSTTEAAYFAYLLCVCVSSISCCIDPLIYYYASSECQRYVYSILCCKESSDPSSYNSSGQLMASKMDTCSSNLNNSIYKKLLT
Method: Calcium mobilization in PC-3 and HCT15 cells was assessed using the fluorescent calcium indicator Fluo-4 AM (ThermoFisher, UK). Cells were cultured in RPMI-1640 medium with 10% fetal bovine serum and antibiotics, maintained at 37 °C with 5% CO2. Cells were seeded in 96-well plates and incubated with 5 μM Fluo-4 AM for 30 min at 37 °C. After washing, cells were treated with 5 units/well of thermolysin-like protease or the agonists TFLLRN (PAR-1) and SLIGKV (PAR-2). Intracellular calcium changes were monitored using a BMG Fluostar plate reader (excitation: 494 nm, emission: 516 nm).

[3] = test system: E. oxidotolerans protease; assay: Azocasein hydrolysis with class-specific protease inhibitors (culture supernatant); format: biochemical, Exiguobacterium oxidotolerans; conditions: 1,10-phenanthroline 2 mM, PMSF 0.2 mM, E-64 10 μM; 37 °C, 1 h; crude preparation
Method: Peptidase activity was quantified using azocasein hydrolysis. Conditioned media (100 µL) was mixed with 1% (w/v) azocasein in PBS and incubated at […] for 1 h. The reaction was quenched by adding 400 µL of 5% trifluoroacetic acid (TFA), and the mixture was centrifuged at 13,000 rpm for 10 min. Absorbance of the supernatant was measured at 440 nm to determine protease activity. Units of protease activity were calculated as previously described by Loomes et al..
Overnight cultures were centrifuged (4000 rpm, 4 °C, 12 min), and the supernatant was filtered through a 0.45 µm nitrocellulose membrane. Protease activity was evaluated by incubating 100 µL of supernatant with 1% azocasein at 37 °C for 1 h. The reaction was quenched with 400 µL of TFA, and absorbance was measured at 440 nm. Protease mechanistic class was determined by incubating the supernatant with 2 mM 1,10-phenanthroline (metalloprotease inhibitor), 0.2 mM PMSF (serine protease inhibitor), and 10 µM E-64 (cysteine protease inhibitor) prior to azocasein hydrolysis.

[4] = test system: E. oxidotolerans peptidase; assay: Fluorogenic substrate hydrolysis progress curves with class-specific inhibitors (purified enzyme); format: biochemical, Exiguobacterium oxidotolerans; conditions: 1,10 phenanthroline 2 mM, PMSF 0.2 mM, E-64 10 μM
Method: Peptidase activity was confirmed using the matrix metalloproteinase (MMP) substrate Mca-Lys-Pro-Leu-Gly-Leu-Dap-(Dnp)-Ala-Arg-NH2 (Peptides International). Class-specific inhibitors were used to determine the catalytic mechanism, including E-64 (10 μM) for cysteine proteases, 1,10 phenanthroline (2 mM) for metalloproteases, and PMSF (0.2 mM) for serine proteases. These concentrations were selected based on established guidelines for effective inhibition. Fluorescence was monitored at excitation 330 nm and emission 460 nm over a 45 min period as described previously.
Time-dependent hydrolysis of the fluorogenic substrate Mca-Lys-Pro-Leu-Gly-Leu-Dap-(Dnp)-Ala-Arg-NH2 by exiguolysin was measured in 96-well plates (total volume 100 µL) with fluorescence was measured every 30 s for 45 min using a plate reader (excitation at 330 nm and emission at 460 nm). Progress curves were generated, and kinetic parameters were determined using non-linear regression.

[5] = test system: E. oxidotolerans peptidase; assay: Casein zymography with and without 1,10-phenanthroline; format: biochemical, Exiguobacterium oxidotolerans; conditions: crude and purified samples; 1,10-phenanthroline in renaturing buffer
Method: Casein zymography was used to visualize protease activity in fractions collected from the Akta Prime HIC system. Samples were prepared in Laemmli buffer and run on a Tris-Glycine casein zymogram gel using the XCell SureLock™ Mini-Cell system. Following electrophoresis, gels were sectioned and renatured in Novex zyogram renaturing buffer with and without 1,10 phenanthroline (5 mM) to assess metalloprotease activity. Gels were stained, destained, and analyzed for caseinolytic peptidase activity.

Sequence of thermolysin-like protease of E. oxidotolerans (exiguolysin) (A0A653I866 entry or part of it): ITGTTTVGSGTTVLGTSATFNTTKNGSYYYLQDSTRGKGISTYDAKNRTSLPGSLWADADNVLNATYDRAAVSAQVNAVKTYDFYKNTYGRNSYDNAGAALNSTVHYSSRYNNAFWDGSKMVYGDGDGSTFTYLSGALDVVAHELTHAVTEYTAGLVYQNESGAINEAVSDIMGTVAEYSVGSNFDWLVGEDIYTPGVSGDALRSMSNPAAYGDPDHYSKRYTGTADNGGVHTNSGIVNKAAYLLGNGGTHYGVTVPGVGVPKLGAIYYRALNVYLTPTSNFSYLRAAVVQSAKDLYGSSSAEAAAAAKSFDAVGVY

With `CCC(C)C(NC(=O)CS)C(=O)NC(C(N)=O)C(C)C` (stereo not drawn) [Me-Ile-Val-NH2] as the molecule, how does the Ki [1] read?
The Ki was 8.33 µM.

`CSCCC(NC(=O)CS)C(=O)NC(Cc1ccc(O)cc1)C(N)=O` (stereo not drawn) [Me-Met-Tyr-NH2, SH-CH2-CO-Met-Tyr-NH2] was tested. Which Ki [1] did it give?
The Ki was 1.95 µM.

Which results are given for `N=C(N)NCCCC(NC(=O)C1CCCN1C(=O)CS)C(N)=O` (stereo not drawn) [Me-Pro-Arg-NH2, SH-CH2-CO-Pro-Arg-NH2]?
Ki [1]: 3.97 µM; Reversal of the protease's PAR-1 disarming effect [2]: reversed

For `NCCCCC(NC(=O)C(CC(N)=O)NC(=O)CS)C(N)=O` (stereo not drawn) [Me-Asn-Lys-NH2], which Ki [1] is on record?
The Ki was 20.9 µM.

How did the “Inhibition of azocasein hydrolysis” value [3] turn out when `c1cnc2c(c1)ccc1cccnc12` [1,10-phenanthroline] was run?
Its value is “significantly reduced protease activity”.

What about the “Inhibition of hydrolysis of Mca-Lys-Pro-Leu-Gly-Leu-Dap-(Dnp)-Ala-Arg-NH2 (progress curves)” value [4] of the same molecule?
The value was “significantly inhibited”.

And the “Inhibition of proteolytically active bands in zymogram” value [5]?
The value was “inhibited”.

What does the source list for `CC(C)C[C@H](NC(=O)[C@H]1O[C@@H]1C(=O)O)C(=O)NCCCCN=C(N)N` [Inhibitor E-64, E-64]?
Inhibition of azocasein hydrolysis [3]: partial inhibition; Inhibition of hydrolysis of Mca-Lys-Pro-Leu-Gly-Leu-Dap-(Dnp)-Ala-Arg-NH2 (progress curves) [4]: minimal effects

For `CCC(C)C(NC(=O)C(NC(=O)CS)C(C)CC)C(N)=O` (stereo not drawn) [Me-Ile-Ile-NH2], which Ki [1] is on record?
The Ki was 11.2 µM.

How did the “Inhibition of azocasein hydrolysis” value [3] turn out when `O=S(=O)(F)Cc1ccccc1` [PMSF] was run?
The value was “Slight inhibition”.

What about the “Inhibition of hydrolysis of Mca-Lys-Pro-Leu-Gly-Leu-Dap-(Dnp)-Ala-Arg-NH2 (progress curves)” value [4] of the same molecule?
Its value is “minimal effects”.

`NC(=O)CC(NC(=O)CS)C(=O)NC(Cc1c[nH]c2ccccc12)C(N)=O` (stereo not drawn) [Me-Asn-Trp-NH2] was tested. Which Ki [1] did it give?
The Ki was 4.35 µM.

`NC(=O)C(Cc1ccccc1)NC(=O)C(Cc1ccc(O)cc1)NC(=O)CS` (stereo not drawn) [Me-Tyr-Phe-NH2] was tested. Which Ki [1] did it give?
The Ki was 5.52 µM.

For `CC(C)C(NC(=O)C(NC(=O)CS)C(C)C)C(N)=O` (stereo not drawn) [Me-Val-Val-NH2], which Ki [1] is on record?
Its Ki is 3.21 µM.

How did the Ki [1] turn out when `NC(=O)CC(NC(=O)CS)C(=O)NC(Cc1ccc(O)cc1)C(N)=O` (stereo not drawn) [Me-Asn-Tyr-NH2] was run?
The Ki was 5.71 µM.
